Source: patent publication US12168677B2, “Proteins for the treatment of epithelial barrier function disorders” (Genevive, Inc., priority 2017, dated 2024)
Entries after “also recorded” stand apart in the source; their conditions may differ.

Legend:
[1] = system: HCT8 enterocytes and HT29-MTX goblet cells; test: Epithelial cell wound healing (Oris Cell Migration assay); format: cell-based, human; settings: SG protein 1 μg/ml, EGF 30 ng/ml, staurosporine 100 nM; 48 hours
Excerpt: HCT8 enterocytes and HT29-MTX goblet cells were used in wound healing studies. The 96 well Oris Cell Migration assay containing plugs preventing cell attachment in the center of each well was used according to the manufacturer's instructions (Platypus Technologies, Madison, WI). The migration assay plates were warmed to room temperature prior to use and plugs were removed from 100% confluence wells prior to cell addition. The HCT8 enterocyte and HT29-MTX goblet cell lines were used at a 9:1 ratio with a total of 5×10^4 total cells added per well (4.5×10^4 HCT8 cells and 0.5×10^4 HT29-MTX cells). […] Plugs were then removed from all control and sample wells. Control wells included cells treated with the diluent vehicle as the blank, 30 ng/ml epidermal growth factor (EGF) as the positive control, and 100 nM staurosporine as the negative control, all diluted in cRPMI. Sample wells contained SG-15 protein at a concentration of 1 μg/ml diluted in cRPMI. 100% and 0% wells were cultured in cRPMI. […] Prior to staining for viable cells, plugs were removed from the 0% wells. Treatment media was removed and cells were washed in PBS containing 0.9 mM CaCl2) and 0.5 mM MgCl2. […] Samples were normalized between 100% and 0% samples and values expressed as a percent growth.

[2] = parameters: species or system mice; settings: mouse, in vivo, ip
[3] = system: HCT8 enterocytes and HT29-MTX goblet cells; test: Co-culture trans-epithelial electrical resistance (TEER) assay with heat killed E. coli challenge; format: cell-based, human; settings: staurosporine 100 nM, negative control
Procedure: Assays were performed as described below in trans-well plates where co-cultures of multiple cell types were performed utilizing a permeable membrane to separate cells. In the apical (top) chamber, human colonic epithelial cells, consisting of a mixture of enterocytes and goblet cells, were cultured until cells obtained tight junction formation and barrier function capacity as assessed by measurement of trans-epithelial electrical resistance (TEER). In the basolateral chamber, monocytes were cultured separately. Epithelial cells were primed with inflammatory cytokines. The assays measured the effect of a therapeutic protein, i.e., SG-15, on epithelial barrier function, wound healing, and production of cytokines. Cell culture. The HCT8 human enterocyte cell line (ATCC Cat. No. CCL-244) was maintained in RPMI-1640 medium supplemented with 10% fetal bovine serum, 100 IU/ml penicillin, 100 μg/ml streptomycin, 10 μg/ml gentamicin and 0.25 μg/ml amphotericin (cRPMI). […] Epithelial cells were trypsinized from culture flasks and viable cells determined by trypan blue counting. […] Trans-epithelial electrical resistance (TEER) readings were measured after the IFN-γ treatment and were used as the pre-treatment TEER values. […]

[4] = system: DSS treated mice; test: DSS model: colon length; format: in vivo, C57BL/6 mice; settings: 50 nmoles/kg i.p. b.i.d.; 2.5% DSS 6 days
Procedure: Eight-week old C57BL/6 mice were housed 5 animals were cage and given food and water ad libitum for 7 days. Following the 7-day acclimation period, treatments were initiated concurrently with addition of 2.5% DSS to the drinking water. […] The mice were treated with 2.5% dextran sodium sulfate (DSS) in their drinking water for 6 days. Treatments were continued with SG-15 or […]-GLP2 twice a day (b.i.d.) in the morning and evening (every 8 and 16 hr) with i.p. injections at 50 nmoles/kg. Fresh 2.5% DSS drinking water was prepared every 2 days. Colon length was measured in mice included in the DSS model described in Example 1E. […] The graph in FIG. 8 represents data pooled from the 2 individual experiments (n=20).

[5] = system: DSS treated mice; test: DSS model: colon weight to length ratio; format: in vivo, C57BL/6 mice; settings: Gly2-GLP2 i.p. b.i.d.; 2.5% DSS 6 days
Procedure: Eight-week old C57BL/6 mice were housed 5 animals were cage and given food and water ad libitum for 7 days. Following the 7-day acclimation period, treatments were initiated concurrently with addition of 2.5% DSS to the drinking water. […] The mice were treated with 2.5% dextran sodium sulfate (DSS) in their drinking water for 6 days. Treatments were continued with SG-15 or […]-GLP2 twice a day (b.i.d.) in the morning and evening (every 8 and 16 hr) with i.p. injections at 50 nmoles/kg. Fresh 2.5% DSS drinking water was prepared every 2 days. Colon length and weight were measured in mice included in the DSS model study described in Example 1E. […] Accordingly, the ratio of tissue weight to length can be used as a readout of DSS induced tissue damage. SG-15 administration to DSS treated mice (Example 1E) reduced the colon weight to length ratio elicited by DSS (DSS=3.9 mg/mm, DSS+SG-15=3.5 mg/mm; p=0.13). […] However, no difference was observed between treated with SG-15 as compared to treatment with […]GLP2. The graph in FIG. 9 represents data pooled from the 2 individual experiments (n=20).

epidermal growth factor (NSDSECPLSHDGYCLHDGVCMYIEALDKYACNCVVGYIGERCQYRDLKWWELR; Epidermal growth factor; UniProt P01133 971-1023, looked up) [EGF, positive control in wound healing assay, reference compound]
Wound healing, percent growth [1]: increasing proliferation

fluorescently labeled bovine serum albumin: tracer protein for tracking studies following intraperitoneal injection
Time at which protein reached the colon after i.p. delivery [2]: 6 h

CN[C@@H]1C[C@H]2O[C@@](C)([C@@H]1OC)n1c3ccccc3c3c4c(c5c6ccccc6n2c5c31)C(=O)NC4 [staurosporine, reference compound]
Wound healing, percent growth [1]: suppressing cell proliferation | Effect of control compound on TEER [3]: drastic decrease in TEER

Gly2-GLP2: a stable analog of glucagon-like peptide 2 (GLP2), positive control in DSS model
Colon length / colon shortening elicited by DSS treatment [4]: significant improvement in colon length | Colon length, Gly2-GLP2 compared with SG protein [4]: significant improvement over SG-16; also recorded: significant improvement over SG-17; also recorded: significant improvement over SG-18 | Colon weight to length ratio, effect of positive control in DSS mice [5]: significant reduction in colon weight to length ratio
